Our source for the IC50 values is ChEMBL document CHEMBL1135163, “Design, synthesis, and evaluation of postulated transient intermediate and substrate analogues as inhibitors of 4-hydroxyphenylpyruvate dioxygenase” (Bioorg Med Chem Lett, 2002).

The structures appear in SMILES notation.

Broadly, the IC50 is the midpoint of a concentration-inhibition curve. Read a low IC50 as higher potency.

4-hydroxyphenylpyruvate dioxygenase, sequence (Q02110 whole entry): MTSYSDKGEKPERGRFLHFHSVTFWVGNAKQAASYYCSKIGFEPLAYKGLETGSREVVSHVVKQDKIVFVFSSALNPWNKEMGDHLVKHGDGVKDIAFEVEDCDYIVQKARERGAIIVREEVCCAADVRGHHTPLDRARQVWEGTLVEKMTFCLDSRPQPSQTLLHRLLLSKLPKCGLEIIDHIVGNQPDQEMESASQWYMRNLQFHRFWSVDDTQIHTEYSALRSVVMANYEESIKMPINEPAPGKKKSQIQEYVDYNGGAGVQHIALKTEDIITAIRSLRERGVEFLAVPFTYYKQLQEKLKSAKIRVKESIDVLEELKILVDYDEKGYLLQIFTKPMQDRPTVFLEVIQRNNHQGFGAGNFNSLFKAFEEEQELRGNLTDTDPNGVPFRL

The assay concerns the target 4-hydroxyphenylpyruvate dioxygenase (Sus scrofa, UniProt Q02110). Put plainly: In vitro inhibition against of 4-Hydroxyphenylpyruvate dioxygenase (4-HPPD) from pig liver by the enol borate method.
For `CCOC(=O)COc1ccc(O)cc1`, the IC50 came to 73 µM.

As to `C=C(c1ccccc1)C(O)C(=O)O` (stereo unspecified), the IC50 was > 900 µM. In the case of `CCOC(=O)C(C)Oc1ccc(O)cc1` (stereo unspecified), it took 588 µM to reach half-maximal inhibition (IC50). Turning to `COC(=O)CC1=CC(=O)C(OC)=CC1=O`, the IC50 was determined as 150 µM. Compared with the last compound, the IC50 is about 3.9-fold lower. With `COC(=O)C1OC1(C)c1ccccc1` (stereo unspecified), it took 120 µM to reach half-maximal inhibition (IC50). For the compound `COC(=O)CC12OC1C(=O)C(OC)=CC2=O` (stereo unspecified), half-maximal inhibition (IC50) was put at 500 µM. In the case of `O=C(O)COc1ccc(O)cc1`, the IC50 came to 6 µM. Compared with the last compound, the IC50 is about 83-fold lower. Consider `C=C(c1ccccc1)C(O)C(=O)OC` (stereo unspecified), for which the IC50 is > 900 µM. For `CC(Oc1ccc(O)cc1)C(=O)O` (stereo unspecified) the value was 93 µM; for `COC(=O)COc1ccc(O)cc1`, 223 µM; for `O=C1OCC(c2ccccc2)=C1O`, 0.5 µM.
